In the supplement of paper PMC13380429:
± gives the standard deviation of the averaged measurements.

Assays:
Settings in all cases: 72 h
[1] = test system: Caco-2; assay: cell viability relative to DMSO; higher = less toxic
[2] = test system: Calu-3; assay: as above
[3] = test system: HepG2; assay: as above
[4] = test system: U2OS; assay: as above
[5] = test system: Vero E6; assay: as above
[6] = test system: Caco-2; assay: relative viability EC50 (midpoint between 100% and the lowest measured viability); higher = less toxic
[7] = test system: Calu-3; assay: as above
[8] = test system: HepG2; assay: as above
[9] = test system: U2OS; assay: as above
[10] = test system: Vero E6; assay: as above
[11] = test system: Caco-2; assay: drug sensitivity score (DSS) for viability; higher = more toxic; extreme values may be limits of the assay
[12] = test system: Calu-3; assay: as above
[13] = test system: HepG2; assay: as above
[14] = test system: U2OS; assay: as above
[15] = test system: Vero E6; assay: as above

## CCOc1ccc(-n2c([C@@H](C)N(Cc3cccnc3)C(=O)Cc3ccc(OC(F)(F)F)cc3)nc3ncccc3c2=O)cc1 (racemic) [AMG-487-(+/-)]
[1]; 1 nM
  cell viability: 94 ± 2.5%
[1]; 10 nM
  cell viability: 98.2 ± 13%
[1]; 100 nM
  cell viability: 98.5 ± 2%
[1]; 1000 nM
  cell viability: 101 ± 6%
[1]; 10000 nM
  cell viability: 94.5 ± 8.4%
[2]; 1 nM
  cell viability: 100.8 ± 0.57%
[2]; 10 nM
  cell viability: 99.7 ± 0.99%
[2]; 100 nM
  cell viability: 93.3 ± 2.7%
[2]; 1000 nM
  cell viability: 92.1 ± 3.4%
[2]; 10000 nM
  cell viability: 98.5 ± 6%
[3]; 1 nM
  cell viability: 99.7 ± 1.1%
[3]; 10 nM
  cell viability: 98 ± 11%
[3]; 100 nM
  cell viability: 97.5 ± 8.5%
[3]; 1000 nM
  cell viability: 95.2 ± 4.5%
[3]; 10000 nM
  cell viability: 94 ± 13%
[4]; 1 nM
  cell viability: 100.5 ± 0.35%
[4]; 10 nM
  cell viability: 101 ± 4%
[4]; 100 nM
  cell viability: 97.3 ± 1.7%
[4]; 1000 nM
  cell viability: 98.6 ± 0.85%
[4]; 10000 nM
  cell viability: 99.6 ± 1.7%
[5]; 1 nM
  cell viability: 97.8 ± 3.2%
[5]; 10 nM
  cell viability: 102 ± 3.9%
[5]; 100 nM
  cell viability: 101 ± 2.5%
[5]; 1000 nM
  cell viability: 97.8 ± 0.57%
[5]; 10000 nM
  cell viability: 102 ± 2.5%
[6]
  relative viability EC50: > 10 µM
[7]
  relative viability EC50: > 10 µM
[8]
  relative viability EC50: > 10 µM
[9]
  relative viability EC50: > 10 µM
[10]
  relative viability EC50: > 10 µM
[11]
  drug sensitivity score: 0
[12]
  drug sensitivity score: 0.05 ± 0.071
[13]
  drug sensitivity score: 0.45 ± 0.64
[14]
  drug sensitivity score: 0
[15]
  drug sensitivity score: 0

## O=c1[nH]c(=O)n([C@H]2CCCO2)cc1F (racemic) [ftorafur]
[1]; 1 nM
  cell viability: 93.5%
[1]; 10 nM
  cell viability: 103%
[1]; 100 nM
  cell viability: 106%
[1]; 1000 nM
  cell viability: 90.7%
[1]; 10000 nM
  cell viability: 100%
[2]; 1 nM
  cell viability: 96.5%
[2]; 10 nM
  cell viability: 95.2%
[2]; 100 nM
  cell viability: 93.9%
[2]; 1000 nM
  cell viability: 94.4%
[2]; 10000 nM
  cell viability: 99.2%
[3]; 1 nM
  cell viability: 87.2%
[3]; 10 nM
  cell viability: 111%
[3]; 100 nM
  cell viability: 91.5%
[3]; 1000 nM
  cell viability: 110%
[3]; 10000 nM
  cell viability: 113%
[4]; 1 nM
  cell viability: 99%
[4]; 10 nM
  cell viability: 95.9%
[4]; 100 nM
  cell viability: 102%
[4]; 1000 nM
  cell viability: 98.1%
[4]; 10000 nM
  cell viability: 105%
[5]; 1 nM
  cell viability: 96.1%
[5]; 10 nM
  cell viability: 103%
[5]; 100 nM
  cell viability: 91.2%
[5]; 1000 nM
  cell viability: 102%
[5]; 10000 nM
  cell viability: 108%
[6]
  relative viability EC50: > 10 µM
[7]
  relative viability EC50: > 10 µM
[8]
  relative viability EC50: > 10 µM
[9]
  relative viability EC50: > 10 µM
[10]
  relative viability EC50: > 10 µM
[11]
  drug sensitivity score: 0
[12]
  drug sensitivity score: 0
[13]
  drug sensitivity score: 0
[14]
  drug sensitivity score: 0
[15]
  drug sensitivity score: 0

## CC1(C)[C@@H]2C[C@@H](O)[C@@](C)(O)[C@H]1C2 [2,3-cis/exo-pinanediol]
[1]; 1 nM
  cell viability: 103%
[1]; 10 nM
  cell viability: 101%
[1]; 100 nM
  cell viability: 97.2%
[1]; 1000 nM
  cell viability: 108%
[1]; 10000 nM
  cell viability: 87.2%
[2]; 1 nM
  cell viability: 106%
[2]; 10 nM
  cell viability: 98.1%
[2]; 100 nM
  cell viability: 102%
[2]; 1000 nM
  cell viability: 106%
[2]; 10000 nM
  cell viability: 103%
[3]; 1 nM
  cell viability: 100%
[3]; 10 nM
  cell viability: 110%
[3]; 100 nM
  cell viability: 104%
[3]; 1000 nM
  cell viability: 93.9%
[3]; 10000 nM
  cell viability: 108%
[4]; 1 nM
  cell viability: 96.1%
[4]; 10 nM
  cell viability: 97.3%
[4]; 100 nM
  cell viability: 95.7%
[4]; 1000 nM
  cell viability: 100%
[4]; 10000 nM
  cell viability: 97.3%
[5]; 1 nM
  cell viability: 100%
[5]; 10 nM
  cell viability: 99.9%
[5]; 100 nM
  cell viability: 99.3%
[5]; 1000 nM
  cell viability: 93.1%
[5]; 10000 nM
  cell viability: 100%
[6]
  relative viability EC50: > 10 µM
[7]
  relative viability EC50: > 10 µM
[8]
  relative viability EC50: > 10 µM
[9]
  relative viability EC50: > 10 µM
[10]
  relative viability EC50: > 10 µM
[11]
  drug sensitivity score: 0
[12]
  drug sensitivity score: 0
[13]
  drug sensitivity score: 0
[14]
  drug sensitivity score: 0
[15]
  drug sensitivity score: 0

## Nc1ccccc1S(N)(=O)=O [2-aminobenzenesulfonamide]
[1]; 1 nM
  cell viability: 95.3%
[1]; 10 nM
  cell viability: 99.4%
[1]; 100 nM
  cell viability: 99.4%
[1]; 1000 nM
  cell viability: 95.5%
[1]; 10000 nM
  cell viability: 101%
[2]; 1 nM
  cell viability: 90.9%
[2]; 10 nM
  cell viability: 108%
[2]; 100 nM
  cell viability: 101%
[2]; 1000 nM
  cell viability: 104%
[2]; 10000 nM
  cell viability: 80.5%
[3]; 1 nM
  cell viability: 99%
[3]; 10 nM
  cell viability: 99.5%
[3]; 100 nM
  cell viability: 87.1%
[3]; 1000 nM
  cell viability: 94.1%
[3]; 10000 nM
  cell viability: 102%
[4]; 1 nM
  cell viability: 103%
[4]; 10 nM
  cell viability: 105%
[4]; 100 nM
  cell viability: 96.8%
[4]; 1000 nM
  cell viability: 98.4%
[4]; 10000 nM
  cell viability: 90.5%
[5]; 1 nM
  cell viability: 99.5%
[5]; 10 nM
  cell viability: 98.2%
[5]; 100 nM
  cell viability: 101%
[5]; 1000 nM
  cell viability: 98.9%
[5]; 10000 nM
  cell viability: 93.7%
[6]
  relative viability EC50: > 10 µM
[7]
  relative viability EC50: > 10 µM
[8]
  relative viability EC50: > 10 µM
[9]
  relative viability EC50: > 10 µM
[10]
  relative viability EC50: > 10 µM
[11]
  drug sensitivity score: 0
[12]
  drug sensitivity score: 0.4
[13]
  drug sensitivity score: 0
[14]
  drug sensitivity score: 0
[15]
  drug sensitivity score: 0

## NC(=O)c1cccc(N)c1 [3-amino-benzamide]
[1]; 1 nM
  cell viability: 98.4%
[1]; 10 nM
  cell viability: 96.2%
[1]; 100 nM
  cell viability: 93.3%
[1]; 1000 nM
  cell viability: 89%
[1]; 10000 nM
  cell viability: 96.8%
[2]; 1 nM
  cell viability: 106%
[2]; 10 nM
  cell viability: 111%
[2]; 100 nM
  cell viability: 102%
[2]; 1000 nM
  cell viability: 103%
[2]; 10000 nM
  cell viability: 97.2%
[3]; 1 nM
  cell viability: 104%
[3]; 10 nM
  cell viability: 81.8%
[3]; 100 nM
  cell viability: 107%
[3]; 1000 nM
  cell viability: 101%
[3]; 10000 nM
  cell viability: 99.8%
[4]; 1 nM
  cell viability: 99.8%
[4]; 10 nM
  cell viability: 106%
[4]; 100 nM
  cell viability: 98.3%
[4]; 1000 nM
  cell viability: 104%
[4]; 10000 nM
  cell viability: 98.9%
[5]; 1 nM
  cell viability: 95.7%
[5]; 10 nM
  cell viability: 102%
[5]; 100 nM
  cell viability: 102%
[5]; 1000 nM
  cell viability: 102%
[5]; 10000 nM
  cell viability: 103%
[6]
  relative viability EC50: > 10 µM
[7]
  relative viability EC50: > 10 µM
[8]
  relative viability EC50: > 10 µM
[9]
  relative viability EC50: > 10 µM
[10]
  relative viability EC50: > 10 µM
[11]
  drug sensitivity score: 0
[12]
  drug sensitivity score: 0
[13]
  drug sensitivity score: 0
[14]
  drug sensitivity score: 0
[15]
  drug sensitivity score: 0

## C[C@@H](CN)CC(=O)O [3-methyl-GABA]
[1]; 1 nM
  cell viability: 85.9%
[1]; 10 nM
  cell viability: 94.9%
[1]; 100 nM
  cell viability: 84.6%
[1]; 1000 nM
  cell viability: 101%
[1]; 10000 nM
  cell viability: 88.8%
[2]; 1 nM
  cell viability: 95.5%
[2]; 10 nM
  cell viability: 104%
[2]; 100 nM
  cell viability: 93.4%
[2]; 1000 nM
  cell viability: 98.3%
[2]; 10000 nM
  cell viability: 90.9%
[3]; 1 nM
  cell viability: 96.1%
[3]; 10 nM
  cell viability: 90.5%
[3]; 100 nM
  cell viability: 100%
[3]; 1000 nM
  cell viability: 92.4%
[3]; 10000 nM
  cell viability: 99%
[4]; 1 nM
  cell viability: 102%
[4]; 10 nM
  cell viability: 101%
[4]; 100 nM
  cell viability: 99.3%
[4]; 1000 nM
  cell viability: 103%
[4]; 10000 nM
  cell viability: 94.5%
[5]; 1 nM
  cell viability: 100%
[5]; 10 nM
  cell viability: 94.2%
[5]; 100 nM
  cell viability: 103%
[5]; 1000 nM
  cell viability: 92.8%
[5]; 10000 nM
  cell viability: 101%
[6]
  relative viability EC50: > 10 µM
[7]
  relative viability EC50: > 10 µM
[8]
  relative viability EC50: > 10 µM
[9]
  relative viability EC50: > 10 µM
[10]
  relative viability EC50: > 10 µM
[11]
  drug sensitivity score: 0.1
[12]
  drug sensitivity score: 0
[13]
  drug sensitivity score: 0
[14]
  drug sensitivity score: 0
[15]
  drug sensitivity score: 0
